From ChEMBL document CHEMBL2010711, “Synthesis and comparative evaluation of 4-oxa- and 4-aza-podophyllotoxins as antiproliferative microtubule destabilizing agents” (Bioorg Med Chem Lett, 2012)
The source made the active and inactive calls.

Experiments:
[1] = test system: RXF 393; assay: Cytotoxicity against human RXF393 cells after 48 hrs by trypan blue dye exclusion assay; assay type: functional; conditions: RXF 393, 48 h
[2] = test system: U-251; assay: Cytotoxicity against human U251 cells after 48 hrs by trypan blue dye exclusion assay; assay type: functional; conditions: U-251, 48 h
[3] = test system: Paracentrotus lividus; assay: Antimitotic activity against Paracentrotus lividus embryo assessed as cleavage alteration at 2 fold less effective threshold concentration after 2.5 to 6 hrs; assay type: functional, organism-based
[4] = test system: UO-31; assay: Cytotoxicity against human UO31 cells after 48 hrs by trypan blue dye exclusion assay; assay type: functional; conditions: UO-31, 48 h
[5] = test system: NCI/ADR-RES; assay: Cytotoxicity against human NCI/ADR-RES cells after 48 hrs by trypan blue dye exclusion assay; assay type: functional
[6] = test system: OVCAR-8; assay: Cytotoxicity against human OVCAR8 cells after 48 hrs by trypan blue dye exclusion assay; assay type: functional; conditions: OVCAR-8, 48 h
[7] = test system: MOLT-4; assay: Cytotoxicity against human MOLT4 cells after 48 hrs by trypan blue dye exclusion assay; assay type: functional; conditions: MOLT-4, 48 h
[8] = test system: DU-145; assay: Cytotoxicity against human DU145 cells after 48 hrs by trypan blue dye exclusion assay; assay type: functional; conditions: DU-145, 48 h
[9] = test system: MDA-MB-435; assay: Cytotoxicity against human MDA-MB-435 cells after 48 hrs by trypan blue dye exclusion assay; assay type: functional; conditions: MDA-MB-435, 48 h
[10] = test system: LOX IMVI; assay: Cytotoxicity against human LOXIMVI cells after 48 hrs by trypan blue dye exclusion assay; assay type: functional
[11] = test system: CCRF-CEM; assay: Cytotoxicity against human CCRF-CEM cells after 48 hrs by trypan blue dye exclusion assay; assay type: functional
[12] = test system: RPMI-8226; assay: Cytotoxicity against human RPMI8226 cells after 48 hrs by trypan blue dye exclusion assay; assay type: functional; conditions: RPMI-8226, 48 h
[13] = test system: OVCAR-3; assay: Cytotoxicity against human OVCAR3 cells after 48 hrs by trypan blue dye exclusion assay; assay type: functional; conditions: OVCAR-3, 48 h
[14] = test system: UACC-62; assay: Cytotoxicity against human UACC62 cells after 48 hrs by trypan blue dye exclusion assay; assay type: functional; conditions: UACC-62, 48 h
[15] = test system: A549; assay: Cytotoxicity against human A549 cells after 48 hrs by trypan blue dye exclusion assay; assay type: functional; conditions: A549, 48 h
[16] = test system: SF-539; assay: Cytotoxicity against human SF539 cells after 48 hrs by trypan blue dye exclusion assay; assay type: functional; conditions: SF-539, 48 h
[17] = test system: 786-0; assay: Cytotoxicity against human 786-0 cells after 48 hrs by trypan blue dye exclusion assay; assay type: functional; conditions: 786-0, 48 h
[18] = test system: OVCAR-5; assay: Cytotoxicity against human OVCAR5 cells after 48 hrs by trypan blue dye exclusion assay; assay type: functional; conditions: OVCAR-5, 48 h
[19] = test system: UACC-257; assay: Cytotoxicity against human UACC257 cells after 48 hrs by trypan blue dye exclusion assay; assay type: functional; conditions: UACC-257, 48 h
[20] = test system: T47D; assay: Cytotoxicity against human T47D cells after 48 hrs by trypan blue dye exclusion assay; assay type: functional
[21] = test system: Paracentrotus lividus; assay: Antimitotic activity against Paracentrotus lividus embryo assessed as cleavage arrest at 2 fold less effective threshold concentration after 2.5 to 6 hrs; assay type: functional, organism-based
[22] = test system: SK-OV-3; assay: Cytotoxicity against human SKOV3 cells after 48 hrs by trypan blue dye exclusion assay; assay type: functional; conditions: SK-OV-3, 48 h
[23] = test system: COLO 205; assay: Cytotoxicity against human COLO205 cells after 48 hrs by trypan blue dye exclusion assay; assay type: functional; conditions: COLO 205, 48 h
[24] = test system: HL-60(TB); assay: Cytotoxicity against human HL-60(TB) cells after 48 hrs by trypan blue dye exclusion assay; assay type: functional; conditions: HL-60, 48 h
[25] = test system: HT-29; assay: Cytotoxicity against human HT-29 cells after 48 hrs by trypan blue dye exclusion assay; assay type: functional; conditions: HT-29, 48 h
[26] = test system: SNB-75; assay: Cytotoxicity against human SNB75 cells after 48 hrs by trypan blue dye exclusion assay; assay type: functional; conditions: SNB-75, 48 h
[27] = test system: HCT-116; assay: Cytotoxicity against human HCT116 cells after 48 hrs by trypan blue dye exclusion assay; assay type: functional; conditions: HCT-116, 48 h
[28] = test system: HOP-92; assay: Cytotoxicity against human HOP92 cells after 48 hrs by trypan blue dye exclusion assay; assay type: functional; conditions: HOP-92, 48 h
[29] = test system: HCT-15; assay: Cytotoxicity against human HCT15 cells after 48 hrs by trypan blue dye exclusion assay; assay type: functional; conditions: HCT-15, 48 h
[30] = test system: SF-268; assay: Cytotoxicity against human SF268 cells after 48 hrs by trypan blue dye exclusion assay; assay type: functional; conditions: SF-268, 48 h
[31] = Cytotoxicity against human Hs 578T cells after 48 hrs by trypan blue dye exclusion assay; assay type: functional
[32] = test system: HCC 2998; assay: Cytotoxicity against human HCC2998 cells after 48 hrs by trypan blue dye exclusion assay; assay type: functional; conditions: HCC 2998, 48 h
[33] = test system: ACHN; assay: Cytotoxicity against human ACHN cells after 48 hrs by trypan blue dye exclusion assay; assay type: functional
[34] = test system: EKVX; assay: Cytotoxicity against human EKVX cells after 48 hrs by trypan blue dye exclusion assay; assay type: functional
[35] = test system: NCI-H23; assay: Cytotoxicity against human NCI-H23 cells after 48 hrs by trypan blue dye exclusion assay; assay type: functional; conditions: NCI-H23, 48 h
[36] = test system: SN12C; assay: Cytotoxicity against human SN12C cells after 48 hrs by trypan blue dye exclusion assay; assay type: functional
[37] = test system: NCI-H460; assay: Cytotoxicity against human NCI-H460 cells after 48 hrs by trypan blue dye exclusion assay; assay type: functional; conditions: NCI-H460, 48 h
[38] = test system: NCI-H322M; assay: Cytotoxicity against human NCI-H322M cells after 48 hrs by trypan blue dye exclusion assay; assay type: functional
[39] = test system: MCF7; assay: Cytotoxicity against human MCF7 cells after 48 hrs by trypan blue dye exclusion assay; assay type: functional; conditions: MCF7, 48 h
[40] = test system: NCI-H522; assay: Cytotoxicity against human NCI-H522 cells after 48 hrs by trypan blue dye exclusion assay; assay type: functional; conditions: NCI-H522, 48 h
[41] = test system: SK-MEL-5; assay: Cytotoxicity against human SK-MEL-5 cells after 48 hrs by trypan blue dye exclusion assay; assay type: functional; conditions: SK-MEL-5, 48 h
[42] = test system: IGROV-1; assay: Cytotoxicity against human IGROV1 cells after 48 hrs by trypan blue dye exclusion assay; assay type: functional; conditions: IGROV-1, 48 h
[43] = test system: SF-295; assay: Cytotoxicity against human SF295 cells after 48 hrs by trypan blue dye exclusion assay; assay type: functional; conditions: SF-295, 48 h
[44] = test system: SK-MEL-2; assay: Cytotoxicity against human SK-MEL-2 cells after 48 hrs by trypan blue dye exclusion assay; assay type: functional; conditions: SK-MEL-2, 48 h
[45] = test system: BT-549; assay: Cytotoxicity against human BT549 cells after 48 hrs by trypan blue dye exclusion assay; assay type: functional; conditions: BT-549, 48 h
[46] = test system: SW-620; assay: Cytotoxicity against human SW620 cells after 48 hrs by trypan blue dye exclusion assay; assay type: functional; conditions: SW-620, 48 h
[47] = test system: CAKI-1; assay: Cytotoxicity against human CAKI-1 cells after 48 hrs by trypan blue dye exclusion assay; assay type: functional; conditions: CAKI-1, 48 h
[48] = test system: TK-10; assay: Cytotoxicity against human TK10 cells after 48 hrs by trypan blue dye exclusion assay; assay type: functional; conditions: TK-10, 48 h
[49] = test system: SNB-19; assay: Cytotoxicity against human SNB19 cells after 48 hrs by trypan blue dye exclusion assay; assay type: functional; conditions: SNB-19, 48 h
[50] = test system: SR; assay: Cytotoxicity against human SR cells after 48 hrs by trypan blue dye exclusion assay; assay type: functional
[51] = test system: MDA-MB-468; assay: Cytotoxicity against human MDA-MB-468 cells after 48 hrs by trypan blue dye exclusion assay; assay type: functional; conditions: MDA-MB-468, 48 h
[52] = test system: PC-3; assay: Cytotoxicity against human PC3 cells after 48 hrs by trypan blue dye exclusion assay; assay type: functional; conditions: PC-3, 48 h
[53] = test system: Malme-3M; assay: Cytotoxicity against human MALME-3M cells after 48 hrs by trypan blue dye exclusion assay; assay type: functional
[54] = test system: KM12; assay: Cytotoxicity against human KM12 cells after 48 hrs by trypan blue dye exclusion assay; assay type: functional; conditions: KM12, 48 h
[55] = test system: A498; assay: Cytotoxicity against human A498 cells after 48 hrs by trypan blue dye exclusion assay; assay type: functional; conditions: A498, 48 h
[56] = test system: M14; assay: Cytotoxicity against human M14 cells after 48 hrs by trypan blue dye exclusion assay; assay type: functional; conditions: M14, 48 h
[57] = test system: OVCAR-4; assay: Cytotoxicity against human OVCAR4 cells after 48 hrs by trypan blue dye exclusion assay; assay type: functional; conditions: OVCAR-4, 48 h
[58] = test system: Paracentrotus lividus; assay: Microtubule destabilizing activity in Paracentrotus lividus embryo assessed as embryo spinning at 2 fold less effective threshold concentration after 15 mins to 20 hrs; assay type: functional, organism-based
[59] = test system: MDA-MB-231; assay: Cytotoxicity against human MDA-MB-231 cells after 48 hrs by trypan blue dye exclusion assay; assay type: functional; conditions: MDA-MB-231, 48 h
[60] = test system: SK-MEL-28; assay: Cytotoxicity against human SK-MEL-28 cells after 48 hrs by trypan blue dye exclusion assay; assay type: functional; conditions: SK-MEL-28, 48 h
[61] = test system: NCI-H226; assay: Cytotoxicity against human NCI-H226 cells after 48 hrs by trypan blue dye exclusion assay; assay type: functional; conditions: NCI-H226, 48 h

## COc1ccc2c(c1)C(c1cc(OC)c3c(c1)OCO3)C1=C(COC1=O)N2 (stereo unspecified)
[1]
  GI50: 130 nM
[2]
  GI50: 805 nM
[3]
  Activity: inactive
[4]
  GI50: 33100 nM
[5]
  GI50: 289 nM
[6]
  GI50: 595 nM
[7]
  GI50: 569 nM
[8]
  GI50: 399 nM
[9]
  GI50: 49 nM
[10]
  GI50: 702 nM
[11]
  GI50: 424 nM
[12]
  GI50: 494 nM
[13]
  GI50: 234 nM
[14]
  GI50: 88.1 nM
[15]
  GI50: 491 nM
[16]
  GI50: 359 nM
[17]
  GI50: 594 nM
[18]
  GI50: 629 nM
[19]
  GI50: > 100000 nM
[20]
  GI50: 50500 nM
[21]
  Activity: inactive
[22]
  GI50: 318 nM
[23]
  GI50: 268 nM
[24]
  GI50: 287 nM
[25]
  GI50: 326 nM
[26]
  GI50: 48.7 nM
[27]
  GI50: 457 nM
[28]
  GI50: 425 nM
[29]
  GI50: 485 nM
[30]
  GI50: 805 nM
[31]
  GI50: 199 nM
[32]
  GI50: 568 nM
[33]
  GI50: 1570 nM
[34]
  GI50: 982 nM
[35]
  GI50: 317 nM
[36]
  GI50: 622 nM
[37]
  GI50: 19200 nM
[38]
  GI50: 283 nM
[39]
  GI50: 254 nM
[40]
  GI50: 348 nM
[41]
  GI50: 269 nM
[42]
  GI50: 679 nM
[43]
  GI50: 82.5 nM
[44]
  GI50: 429 nM
[45]
  GI50: 1190 nM
[46]
  GI50: 377 nM
[47]
  GI50: 709 nM
[48]
  GI50: > 100000 nM
[49]
  GI50: 518 nM
[50]
  GI50: 324 nM
[51]
  GI50: 230 nM
[52]
  GI50: 358 nM
[53]
  GI50: > 100000 nM
[54]
  GI50: 254 nM
[55]
  GI50: 138 nM
[56]
  GI50: 247 nM
[57]
  GI50: 762 nM
[58]
  Activity: inactive
[59]
  GI50: 698 nM
[60]
  GI50: 206 nM
[61]
  GI50: 23300 nM
